SMILES strings stand for the structures. Like-named read-outs stand apart in the source and are kept apart here.

As a reminder, the IC50 is the midpoint of a concentration-inhibition curve. Read a high IC50 as a need for much substance. In general, EC50 refers to the concentration needed to bring the measured effect to its halfway point.

Assay [1] deals with T1, human KEAP1 (N-term, residues 321-609) (Homo sapiens, UniProt Q14145).
T1 construct: human KEAP1 (N-term, residues 321-609)
Put plainly: KEAP1 Kelch Fluorescence Polarization (FP) Assay. It counts as binding. The note with it: inhibition of Kelch domain-NRF2 interaction; 2 nM FITC-labelled NRF2 peptide, 25 nM KEAP1, 1 h room temperature; compounds below 10 nM cannot be differentiated. The gist of the method:
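Compounds in 12-point curves (top 10 μM) displaced 2 nM FITC-labelled NRF2 peptide from 25 nM KEAP1 residues 321-609 over 1 h at room temperature. Polarization read at 470/530 nm, window set by 50 μM unlabelled peptide; four-parameter fit gave IC50, floor 10 nM.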

Assay [2] has as its system NRF2 mediated gene NAD(P)H:quinone acceptor oxidoreductase 1 (NQO1) in BEAS-2B cells. The assay is described as follows: Beas2B NQO1 mRNA Cell Based Assay. Also on record: species or system human. The note with it: Homo sapiens. Here is the method: Beas2B NQO1 mRNA Cell Based Assay
The up regulation of the NRF2 mediated gene NAD(P)H:quinone acceptor oxidoreductase 1 (NQO1) was measured using the following assay method: BEAS-2B cells (ATCC CRL-9609) were plated in 96-well clear plates at 20,000 cells/well in 75 μL of cell culture media and incubated overnight (37° C., 5% CO2). On day 2, 25 μL of compound or controls were added to the cells for 24 h. On day 3, the medium was aspirated from the plate and the Cells-to-CT™ 1-Step TaqMan® Kit (Ambion A25603) was used to perform expression analysis directly from cultured cells without RNA purification according to the manufacturer's instructions.
Briefly, cells were washed with ice cold PBS and 22.5 μL of room-temperature DNase/Lysis solution was added to the cells and incubated at room temperature for 5 minutes. To stop the reaction, 2.25 μL of stop solution was added to the cell lysate. The samples were diluted 1:5 using nuclease free water and 2.5 μL transferred into the PCR plate. Real-time PCR was performed using the C-1000 Thermal Cycler (Bio-Rad) using human beta actin as the internal control. The cDNA was amplified with a specific primer for NQO1 using the 1-step RT-PCR master mix (Ambion Cells-to-CTTM 1-Step TaqMan® Kit A25603). The primers/probes sets that were used for amplification of cDNA were obtained from TaqMan Gene Expression Assays (Applied Biosystems). The comparative CT (ΔΔCT) relative quantification method was used to calculate the relative mRNA level of the target gene NQO1 as described in the Applied Biosystems Chemistry Guide. The data are expressed as an increase in target gene mRNA compared to vehicle (0.1% DMSO) control and the EC50 values were determined by fitting the data to a four parameter logistic fit using XLfit or XE Runner within ActivityBase.

The mark [3] stands for this setting: BEAS-2B cells, compound for 24 h, increase in NQO1 mRNA compared to vehicle (0.1% DMSO) control, read-out: EC50.

T1 sequence (Q14145 321-609): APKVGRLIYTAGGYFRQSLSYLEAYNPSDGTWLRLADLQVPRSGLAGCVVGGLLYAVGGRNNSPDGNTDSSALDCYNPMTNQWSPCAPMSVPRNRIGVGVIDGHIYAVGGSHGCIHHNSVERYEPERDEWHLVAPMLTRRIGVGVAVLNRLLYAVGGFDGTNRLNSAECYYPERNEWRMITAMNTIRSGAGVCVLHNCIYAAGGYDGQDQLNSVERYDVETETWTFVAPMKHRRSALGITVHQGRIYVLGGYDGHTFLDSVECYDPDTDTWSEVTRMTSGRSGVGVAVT

For the molecule `CNC(=O)[C@H]1CCCC[C@H]1C(=O)N1CCc2c(Cl)ccc(OCc3cncnc3)c2[C@H]1CN1CCCC1=O` [Example 64, (1S,2R)-2-((S)-5-chloro-1-((2-oxopyrrolidin-1-yl)methyl)-8-(pyrimidin-5-ylmethoxy)-1,2,3,4-tetrahydroisoquinoline-2-carbonyl)-N-methylcyclohexane-1-carboxamide], the IC50 in assay [1] came out at 41 nM. For the same molecule, the EC50 in assay [2] (setting [3]) was 5750 nM.

Regarding `CNC(=O)[C@H]1CCCC[C@H]1C(=O)N1CCc2c(Cl)ccc(OCCc3cn(C)nn3)c2[C@H]1CN1CCCC1=O` [Example 66, (1S,2R)-2-((S)-5-chloro-8-(2-(1-methyl-1H-1,2,3-triazol-4-yl)ethoxy)-1-((2-oxopyrrolidin-1-yl)methyl)-1,2,3,4-tetrahydroisoquinoline-2-carbonyl)-N-methylcyclohexane-1-carboxamide], the IC50 in assay [1] was determined as 151 nM. Besides, the EC50 in assay [2] (setting [3]) came to 5660 nM.

Take `CNC(=O)N1CCC[C@H]1C(=O)N1CCc2c(Cl)ccc(OCc3nnn(C)c3C(F)F)c2[C@H]1CN1CCCC1=O` [Example 67, (S)-2-((S)-5-chloro-8-((5-(difluoromethyl)-1-methyl-1H-1,2,3-triazol-4-yl)methoxy)-1-((2-oxopyrrolidin-1-yl)methyl)-1,2,3,4-tetrahydroisoquinoline-2-carbonyl)-N-methylpyrrolidine-1-carboxamide]: in assay [1], the IC50 came to 29 nM. Besides, the EC50 in assay [2] (BEAS-2B, 24 h) came to 1360 nM.

As for `CNC(=O)[C@H]1CCCC[C@H]1C(=O)N1CCc2c(Cl)ccc(OCc3cnc4c(c3)ncn4C)c2[C@H]1CN1CCCC1=O` [Example 68, (1S,2R)-2-((S)-5-chloro-8-((3-methyl-3H-imidazo[4,5-b]pyridin-6-yl)methoxy)-1-((2-oxopyrrolidin-1-yl)methyl)-1,2,3,4-tetrahydroisoquinoline-2-carbonyl)-N-methylcyclohexane-1-carboxamide], in assay [1], the IC50 was 13 nM. Moreover, the EC50 in assay [2] (setting [3]) is 145 nM.

Regarding `CNC(=O)[C@@]1(C)CCCC[C@H]1C(=O)N1CCc2c(Cl)ccc(OCc3nnn(C)c3C(F)F)c2[C@H]1CN1CCCC1=O` [Example 69, (1S,2R)-2-((S)-5-chloro-8-((5-(difluoromethyl)-1-methyl-1H-1,2,3-triazol-4-yl)methoxy)-1-((2-oxopyrrolidin-1-yl)methyl)-1,2,3,4-tetrahydroisoquinoline-2-carbonyl)-N,1-dimethylcyclohexane-1-carboxamide], the IC50 in assay [1] was 14 nM. Further, the EC50 in assay [2] (setting [3]) was determined as 239 nM.

Consider `CNC(=O)[C@H]1CCCC[C@H]1C(=O)N1CCc2c(Cl)ccc(OCc3noc4ncccc34)c2[C@H]1CN1CCCC1=O` [Example 70, (1S,2R)-2-((S)-5-chloro-8-(isoxazolo[5,4-b]pyridin-3-ylmethoxy)-1-((2-oxopyrrolidin-1-yl)methyl)-1,2,3,4-tetrahydroisoquinoline-2-carbonyl)-N-methylcyclohexane-1-carboxamide], for which the half-inhibitory concentration (IC50) in assay [1] amounted to 29 nM. The EC50 in assay [2] (setting [3]) came out at 295 nM.

In assay [1], `CNC(=O)[C@H]1CCCC[C@H]1C(=O)N1CCc2c(Cl)ccc(OCc3ccc4c(C)noc4n3)c2[C@H]1CN1CCCC1=O` [Example 71, (1S,2R)-2-((S)-5-chloro-8-((3-methylisoxazolo[5,4-b]pyridin-6-yl)methoxy)-1-((2-oxopyrrolidin-1-yl)methyl)-1,2,3,4-tetrahydroisoquinoline-2-carbonyl)-N-methylcyclohexane-1-carboxamide] showed an IC50 of 17 nM. For the same molecule, in assay [2] (setting [3]), the EC50 was 116 nM.

With `CNC(=O)[C@H]1CCCC[C@H]1C(=O)N1CCc2c(Cl)ccc(OCc3ccc4c(c3)nnn4C)c2[C@H]1CN1CCCC1=O` [Example 72, (1S,2R)-2-((S)-5-chloro-8-((1-methyl-1H-benzo[d][1,2,3]triazol-5-yl)methoxy)-1-((2-oxopyrrolidin-1-yl)methyl)-1,2,3,4-tetrahydroisoquinoline-2-carbonyl)-N-methylcyclohexane-1-carboxamide], in assay [1], 27 nM corresponded to half-maximal inhibition (IC50). Further, the EC50 in assay [2] (setting [3]) stood at 605 nM.

`CNC(=O)[C@H]1CCCC[C@H]1C(=O)N1CCc2c(Cl)ccc(OCc3nnc4ccccn34)c2[C@H]1CN1CCCC1=O` [Example 73, (1S,2R)-2-((S)-8-([1,2,4]triazolo[4,3-a]pyridin-3-ylmethoxy)-5-chloro-1-((2-oxopyrrolidin-1-yl)methyl)-1,2,3,4-tetrahydroisoquinoline-2-carbonyl)-N-methylcyclohexane-1-carboxamide]: the IC50 in assay [1] was 9.4 nM. The EC50 in assay [2] (setting [3]) was 288 nM.

Molecule `CNC(=O)[C@H]1CCCC[C@H]1C(=O)N1CCc2c(Cl)ccc(OCc3cn(C)nn3)c2[C@H]1CN1CCCC1=O` [Example 74, (1S,2R)-2-((S)-5-chloro-8-((1-methyl-1H-1,2,3-triazol-4-yl)methoxy)-1-((2-oxopyrrolidin-1-yl)methyl)-1,2,3,4-tetrahydroisoquinoline-2-carbonyl)-N-methylcyclohexane-1-carboxamide] registered an IC50 in assay [1] of 16 nM. For the same molecule, the EC50 in assay [2] (setting [3]) came to 334 nM.

`CNC(=O)[C@H]1CCCC[C@H]1C(=O)N1CCc2c(Cl)ccc(OCc3cn4cccnc4n3)c2[C@H]1CN1CCCC1=O` [Example 75, (1S,2R)-2-((S)-5-chloro-8-(imidazo[1,2-a]pyrimidin-2-ylmethoxy)-1-((2-oxopyrrolidin-1-yl)methyl)-1,2,3,4-tetrahydroisoquinoline-2-carbonyl)-N-methylcyclohexane-1-carboxamide] came in with an IC50 in assay [1] of 73 nM. Moreover, the concentration giving a half-maximal response (EC50) in assay [2] (setting [3]) was determined as 2170 nM.

The molecule `CNC(=O)[C@H]1CCCC[C@H]1C(=O)N1CCc2c(Cl)ccc(OCc3nnn(C)c3C(F)F)c2[C@H]1CN1Cc2ccccc2C1=O` [Example 76, (1S,2R)-2-((S)-5-chloro-8-((5-(difluoromethyl)-1-methyl-1H-1,2,3-triazol-4-yl)methoxy)-1-((1-oxoisoindolin-2-yl)methyl)-1,2,3,4-tetrahydroisoquinoline-2-carbonyl)-N-methylcyclohexane-1-carboxamide] came in with an IC50 in assay [1] of 11 nM. Further, the EC50 in assay [2] (setting [3]) is 166 nM.

For `CNC(=O)[C@H]1CCCC[C@H]1C(=O)N1CCc2c(Cl)ccc(OCc3nnc4ccccn34)c2[C@H]1CN1Cc2ccccc2C1=O` [Example 77, (1S,2R)-2-((S)-8-([1,2,4]triazolo[4,3-a]pyridin-3-ylmethoxy)-5-chloro-1-((1-oxoisoindolin-2-yl)methyl)-1,2,3,4-tetrahydroisoquinoline-2-carbonyl)-N-methylcyclohexane-1-carboxamide], inhibition in assay [1] was half-maximal at 7.2 nM (IC50). The EC50 in assay [2] (setting [3]) was 77 nM.

The molecule `O=C(NCC(F)(F)CO)[C@H]1CCCC[C@H]1C(=O)N1CCc2c(Cl)ccc(OCc3noc4ccccc34)c2[C@H]1CN1CCCC1=O` [Example 78, (1S,2R)-2-((S)-8-(benzo[d]isoxazol-3-ylmethoxy)-5-chloro-1-((2-oxopyrrolidin-1-yl)methyl)-1,2,3,4-tetrahydroisoquinoline-2-carbonyl)-N-(2,2-difluoro-3-hydroxypropyl)cyclohexane-1-carboxamide] registered an IC50 in assay [1] of 110 nM. For the same molecule, the EC50 in assay [2] (setting [3]) is more than 10000 nM.

`CNC(=O)N1CCCC[C@H]1C(=O)N1CCc2c(Cl)ccc(OCc3nnn(C)c3C(F)F)c2[C@H]1CN1CCCC1=O` [Example 79, (S)-2-((S)-5-chloro-8-((5-(difluoromethyl)-1-methyl-1H-1,2,3-triazol-4-yl)methoxy)-1-((2-oxopyrrolidin-1-yl)methyl)-1,2,3,4-tetrahydroisoquinoline-2-carbonyl)-N-methylpiperidine-1-carboxamide] showed an IC50 in assay [1] of 14 nM. Further, in assay [2] (setting [3]), the EC50 came to 336 nM.

In assay [1], `CNC(=O)[C@H]1CCCC[C@H]1C(=O)N1CCc2c(Cl)ccc(OCc3ccc4ncn(C)c4n3)c2[C@H]1CN1CCCC1=O` [Example 80, (1S,2R)-2-((S)-5-chloro-8-((3-methyl-3H-imidazo[4,5-b]pyridin-5-yl)methoxy)-1-((2-oxopyrrolidin-1-yl)methyl)-1,2,3,4-tetrahydroisoquinoline-2-carbonyl)-N-methylcyclohexane-1-carboxamide] had an IC50 of 371 nM. Moreover, the EC50 in assay [2] (setting [3]) came to 2250 nM.

Take `CNC(=O)[C@H]1CCCC[C@H]1C(=O)N1CCc2c(Cl)ccc(OCc3nn(C)c4ccccc34)c2[C@H]1CN1CCCC1=O` [Example 81, (1S,2R)-2-((S)-5-chloro-8-((1-methyl-1H-indazol-3-yl)methoxy)-1-((2-oxopyrrolidin-1-yl)methyl)-1,2,3,4-tetrahydroisoquinoline-2-carbonyl)-N-methylcyclohexane-1-carboxamide]: the midpoint of inhibition in assay [1], the IC50, lay at 723 nM. For the same molecule, in assay [2] (setting [3]), the EC50 was more than 10000 nM.

The values above are taken from US20230159511A1, “TETRAHYDROISOQUINOLINE COMPOUNDS AS NRF2 ACTIVATORS” (C4X Discovery Limited, priority 2020, published 2023).
